This is an account of results in ChEMBL document CHEMBL1140373, “Azepanone-based inhibitors of human cathepsin L” (J Med Chem, 2005).

Residues, ends and D or L forms follow the SMILES beside them. *: point of attachment. Cbz = O=C(OCc1ccccc1)*

The target in one assay is Procathepsin L (Homo sapiens, UniProt P07711). The experiment in a line: Apparent inhibitory constant against human cathepsin L. To be noted: read-out: Ki app.
A further assay concerns the target T1, Cathepsin K (Homo sapiens, UniProt P43235).
T1 sequence (P43235 whole entry): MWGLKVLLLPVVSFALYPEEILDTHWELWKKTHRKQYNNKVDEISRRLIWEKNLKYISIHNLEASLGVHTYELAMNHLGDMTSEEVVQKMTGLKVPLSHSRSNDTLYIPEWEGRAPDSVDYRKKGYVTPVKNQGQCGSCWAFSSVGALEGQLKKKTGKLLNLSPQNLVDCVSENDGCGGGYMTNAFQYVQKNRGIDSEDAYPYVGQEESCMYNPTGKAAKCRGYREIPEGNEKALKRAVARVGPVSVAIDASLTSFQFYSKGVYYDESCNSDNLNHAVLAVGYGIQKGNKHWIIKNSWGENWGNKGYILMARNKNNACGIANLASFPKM
The assay can be described thus: Apparent inhibitory constant against human cathepsin K. The settings on record: read-out: Ki app.

For the next assay, the target named is Cathepsin S (Homo sapiens, UniProt P25774).
For a further assay, the target named is Cathepsin B (Homo sapiens, UniProt P07858). The assay can be described thus: Apparent inhibitory constant against human cathepsin B. To be noted: read-out: Ki app.

Chain of Procathepsin L (P07711 whole entry): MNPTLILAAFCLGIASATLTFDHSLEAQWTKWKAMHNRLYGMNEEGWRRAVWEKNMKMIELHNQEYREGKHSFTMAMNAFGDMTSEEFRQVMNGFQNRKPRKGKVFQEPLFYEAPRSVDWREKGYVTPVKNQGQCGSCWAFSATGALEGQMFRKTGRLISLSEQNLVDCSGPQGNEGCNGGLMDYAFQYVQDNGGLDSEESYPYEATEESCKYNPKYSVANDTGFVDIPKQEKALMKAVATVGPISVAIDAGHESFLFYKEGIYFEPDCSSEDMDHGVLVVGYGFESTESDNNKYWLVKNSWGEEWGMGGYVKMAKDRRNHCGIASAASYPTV
Chain of Cathepsin S (P25774 whole entry): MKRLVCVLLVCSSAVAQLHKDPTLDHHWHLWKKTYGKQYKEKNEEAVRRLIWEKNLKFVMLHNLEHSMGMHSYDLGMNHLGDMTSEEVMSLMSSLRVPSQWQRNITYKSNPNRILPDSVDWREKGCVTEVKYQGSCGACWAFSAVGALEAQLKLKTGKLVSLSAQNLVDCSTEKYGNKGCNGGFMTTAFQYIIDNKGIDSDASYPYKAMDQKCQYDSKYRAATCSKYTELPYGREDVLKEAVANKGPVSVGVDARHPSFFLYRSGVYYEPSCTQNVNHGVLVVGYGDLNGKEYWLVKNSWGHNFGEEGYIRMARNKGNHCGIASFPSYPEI
Description for Cathepsin S: Apparent inhibitory constant against human cathepsin S

Turning to `O=C(N[C@@H](Cc1ccc2ccccc2c1)C(=O)N[C@H]1CCCN(S(=O)(=O)c2ccccn2)CC1=O)c1cccc2ccccc12`, the Ki on Procathepsin L was 0.43 nM; on Cathepsin K, above 10000 nM; on Cathepsin S, 15.6 nM; at Cathepsin B, 150 nM.

In the case of `O=C(N[C@@H](Cc1ccc2ccccc2c1)C(=O)N[C@H]1CCCN(S(=O)(=O)c2ccccn2)CC1=O)c1cc2ccccc2o1`, the Ki came out at 0.57 nM on Procathepsin L, 295 nM at Cathepsin K, 3.1 nM at Cathepsin S and 24 nM at Cathepsin B.

Consider `CC(C)C[C@H](NC(=O)c1cccc2cccnc12)C(=O)N[C@H]1CCCN(S(=O)(=O)c2ccccn2)CC1=O`, for which the Ki is 8.2 nM on Procathepsin L, 52 nM at Cathepsin K, 41 nM at Cathepsin S and above 1000 nM on Cathepsin B.

As for `CC(C)C[C@H](NC(=O)c1cccc2ccccc12)C(=O)N[C@H]1CCCN(S(=O)(=O)c2ccccn2)CC1=O`, the results for the Ki on Procathepsin L, on Cathepsin K and on Cathepsin S were 1.4 nM, 12 nM and 5.7 nM, respectively.

For `O=C(N[C@@H](Cc1ccccc1)C(=O)N[C@H]1CCCN(S(=O)(=O)c2ccccn2)CC1=O)c1cc2ccccc2o1`, the Ki at Procathepsin L amounted to 1.7 nM; on Cathepsin K, 10.5 nM; on Cathepsin S it was 8.9 nM; at Cathepsin B it was 193 nM.

As to `CC(C)C[C@H](NC(=O)c1ccc2ccccc2n1)C(=O)N[C@H]1CCCN(S(=O)(=O)c2ccccn2)CC1=O`, the Ki turned out to be 5 nM on Procathepsin L, 0.89 nM at Cathepsin K, 27 nM on Cathepsin S and 740 nM on Cathepsin B.

Regarding `O=C[C@H](Cc1ccc(O)cc1)NC(=O)[C@H](Cc1ccccc1)NC(=O)OCc1ccccc1` (Cbz-Phe-Tyr-aldehyde), the figures for the Ki at Procathepsin L, at Cathepsin K and on Cathepsin S were 0.47 nM, 0.74 nM and 0.26 nM, respectively.
